Molecules are shown by their SMILES.

The nature of the series: gradient 5% acetonitrile 3 min, to 50% in 2 min, to 85% in 15 min, held 3 min, 100 µL/min. To be noted: column: Zorbax Extend-C18 2.1 x 50 mm; eluents: water / acetonitrile, 0.1% formic acid. The essentials: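 A Zorbax Extend-C18 column (2.1 × 50 mm, 1.8 μm) run at 100 μL/min with water and acetonitrile, both containing 0.1% formic acid, separated mixtures of ~100 pure standards. The HPLC was coupled to a quadrupole time-of-flight mass spectrometer operated in positive and negative ionization mode, with dead and dwell volumes of 40 μL and 900 μL. Each retention time was taken from a computationally picked adduct peak that was then manually inspected.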
On to `Fc1ccc(OCc2nc(-c3ccc4c(c3)ncn4CCN3CCCCC3)no2)cc1`, for which the RP-LC retention time turned out to be 654 s.

`O=C1CC(c2nc(-c3ccc(C(F)(F)F)cc3)no2)CN1c1ccc2c(c1)OCO2` (stereo not given) came in with an RP-LC retention time of 1070 s.

`Cc1ccccc1-c1noc(Cn2cnc3c(cnn3-c3cc(Cl)ccc3C)c2=O)n1` gave an RP-LC retention time of 1100 s.

As to `CCc1ccccc1S(=O)(=O)N1CCC(n2cnnc2C(C)C)CC1`, the RP-LC retention time stood at 784 s.

With `CCC(CC)C(=O)N1C[C@H](c2nc(-c3ccncc3)no2)[C@@H](C)C1`, the RP-LC retention time amounted to 793 s.

As to `CCCn1nnc2cc(-c3noc(CNC(=O)c4ccccc4)n3)ccc21`, the RP-LC retention time turned out to be 624 s.

`CS(=O)(=O)N1CC[C@H]2CN(Cc3cn[nH]c3-c3ccc(F)cc3)C[C@@]2(CF)C1` gave an RP-LC retention time of 576 s.

As to `CCNc1ncnc2sc3c(c12)CCN(C(=O)CCOC)C3`, the RP-LC retention time came out at 610 s.

Compound `Cc1ccc(S(=O)(=O)N2CC(C(=O)NC3CCCC3)Oc3ccc(C)cc32)cc1` (stereo not given) yielded an RP-LC retention time of 1140 s.

Take `CCc1nc(OCC(=O)NCCCOC)c2c(-c3ccc(F)cc3)noc2n1`: the RP-LC retention time stood at 890 s.

Compound `Cc1onc(-c2ccccn2)c1C(=O)NCCc1c[nH]c2ccc(Cl)cc12` displayed an RP-LC retention time of 1000 s.

Compound `CCc1nc(-c2csc(S(=O)(=O)N3CCCC(C(=O)Nc4cc(C)cc(C)c4)C3)c2)no1` (stereo not given) yielded an RP-LC retention time of 1090 s.

In turn, `c1cc2c3c(cccc3c1)NC1(CCC3(CC1)Nc1cccc4cccc(c14)N3)N2` had an RP-LC retention time of 1200 s.

`Cc1ccc(Nc2c(-c3cccc([N+](=O)[O-])c3)nc3cc(C)ccn23)cc1`: the RP-LC retention time worked out at 794 s.

The compound `NC(=O)C1CCN(Cc2nc(-c3ccc(N4CCSCC4)nc3)no2)CC1` registered an RP-LC retention time of 597 s.

The compound `Cc1cc(C)c(NC(=O)C2CCCN2S(=O)(=O)c2cc3c(cc2C)NC(=O)CO3)c(C)c1` (stereo not given) showed an RP-LC retention time of 799 s.

Consider `CCc1noc2ncnc(NCCN(C)Cc3ccccc3)c12`, for which the RP-LC retention time is 595 s.

With `Cc1ccc(NC(=O)Cc2c(C(=O)O)c(C)cn2C)c(C)c1`, the RP-LC retention time stood at 771 s.

`CC(=O)N1C(=O)C2(NCC(C)N2)c2ccccc21` (stereo not given) came in with an RP-LC retention time of 625 s.

Compound `CCOC(=O)c1nc(NCCCN2CCN(c3cc(Cl)ccc3C)CC2)c2ccccc2n1` yielded an RP-LC retention time of 731 s.

In turn, `Cn1ncc2c3ccccc3n(CCCC(=O)NCc3cccnc3)c2c1=O` showed an RP-LC retention time of 612 s.

The compound `Cc1oc(-c2ccc(NC(=O)c3ccc(Br)o3)cc2)nc1Cn1cccn1` showed an RP-LC retention time of 901 s.

`Cc1nc(-c2ccncc2)nc2c1CCC(=O)N2Cc1ccncc1` gave an RP-LC retention time of 540 s.

Compound `CCC(CC)C(=O)N1C[C@H]2C[C@H](C1)[C@H]1CCCC(=O)N1C2` showed an RP-LC retention time of 645 s.

The compound `Cc1ccc(CNC(=O)C2CCCN(c3nnc4ccccn34)C2)cc1` (stereo not given) had an RP-LC retention time of 705 s.

For `O=C1CN(Cc2ccc3c(c2)OCO3)C2CS(=O)(=O)CC2N1c1cccc(Cl)c1` (stereo not given), the RP-LC retention time turned out to be 770 s.

With `Cc1ccc(C)c(S(=O)(=O)N2CCc3c(c(-c4nnc(-c5ccc(F)cc5)o4)nn3C)C2)c1`, the RP-LC retention time is 1040 s.

`CCCS(=O)(=O)N1CCCN(S(=O)(=O)c2ccccc2)CCC(=O)NCC1` returned an RP-LC retention time of 707 s.

With `Cc1nn2c(NC(=O)CSc3nnc4sc5ccccc5n34)csc2nc1=O`, the RP-LC retention time is 635 s.

Regarding `Cc1ccc(NC(=O)CSCC(=O)N2CCC(C(N)=O)CC2)cc1`, the RP-LC retention time was 630 s.

As to `CC1CCN(C2=NCCN2C(=O)c2ccccc2Cl)CC1`, the RP-LC retention time amounted to 655 s.

For the compound `CCN1CCCn2cc(S(=O)(=O)NCc3cccc(C)c3)cc2C1=O`, the RP-LC retention time was found to be 780 s.

The compound `O=C1CCN(C(=O)COc2ccc(Cl)cc2Cl)c2ccccc2N1` displayed an RP-LC retention time of 792 s.

In turn, `CCC1CCCCN1CCCNC(=O)C1CCN(c2ncnc3onc(C)c23)CC1` (stereo not given) came in with an RP-LC retention time of 579 s.

With `CCC(=O)NC1Cc2ccccc2C(c2ccccc2)C1` (stereo not given), the RP-LC retention time was determined as 997 s.

As to `COc1ccc(NC(=O)N(C)CCc2noc(COc3cc(C)cc(C)c3)n2)cc1`, the RP-LC retention time amounted to 907 s.

For `COc1ccc(NC(=O)c2ccccc2NC(=O)C2CCN(C(=O)C(C)(C)C)CC2)cc1`, the RP-LC retention time stood at 868 s.

On to `Cc1noc(-c2ccc(-n3ncc(C(=O)NCCc4c[nH]c5ccccc45)c3C)nc2)n1`, for which the RP-LC retention time amounted to 898 s.

`Cc1ccc(C2=NC3(CCN(C(=O)c4ccc(F)cc4F)CC3)ON2)cc1`: the RP-LC retention time turned out to be 855 s.

In the case of `CN(C)CCNc1ccc(-c2nc(-c3cccc(F)c3)no2)cn1`, the RP-LC retention time amounted to 678 s.

`Cn1c(=O)c2ccn(CC(=O)Nc3ccc(F)cc3Cl)c2n(C)c1=O` displayed an RP-LC retention time of 695 s.

In the case of `Cc1ccc(N2CCC(NC(=O)Nc3cc(F)cc(F)c3)C2=O)cc1C` (stereo not given), the RP-LC retention time came to 903 s.

Take `CCC(=O)Nc1ccc2c(c1)Sc1ncccc1C(=O)N2C(C)C`: the RP-LC retention time was determined as 704 s.

As to `CCC(CC)C(=O)Nc1nc(-c2ccc3c(c2)N(C)C(=O)CO3)cs1`, the RP-LC retention time was determined as 929 s.

In the case of `CN1C(=O)C2(CCN(C(=O)COc3ccc(Cl)cc3)C2)c2ccccc21` (stereo not given), the RP-LC retention time was 838 s.

In turn, `Cc1ccc(OCc2nnc(SCC(=O)Nc3nc(-c4ccccc4)cs3)o2)cc1` yielded an RP-LC retention time of 875 s.

In turn, `FC(F)(F)c1cccc(-c2noc(Cc3nnc(-c4ccccc4)o3)n2)c1` gave an RP-LC retention time of 1080 s.

The compound `CC(C)C(=O)Nc1ccc2c(c1)Sc1ncccc1C(=O)N2C(C)C` showed an RP-LC retention time of 764 s.

For `COc1ccc(NC(=O)N2CCC(c3cc(N)on3)CC2)cc1`, the RP-LC retention time came to 640 s.

The compound `CCN(C(=O)Cc1csc2nc(-c3ccc(OC)c(OC)c3)cn12)c1ccccc1` displayed an RP-LC retention time of 772 s.

On to `CCN1C(=O)c2cccnc2Sc2cc(CNC(=O)c3cccs3)ccc21`, for which the RP-LC retention time amounted to 737 s.

The compound `CC1=C(C(=O)N(CC(=O)NCc2ccc(C)cc2)c2ccc(Cl)cc2)SCCO1` gave an RP-LC retention time of 1010 s.

`O=C(CCC(=O)N1c2ccccc2NC2=C(C(=O)CCC2)C1c1ccco1)Nc1ccccc1` (stereo not given) returned an RP-LC retention time of 744 s.

On to `CC1=C(c2cccc(Cl)c2)S(=O)(=O)N=C1N1CCCN(C(=O)C2CC2)CC1`, for which the RP-LC retention time is 763 s.

For `CCc1nc2c(=O)n(CC(=O)N3CCN(c4ccccc4)CC3)nc(C)c2s1`, the RP-LC retention time is 765 s.

For the compound `CCNC(=O)CC1=C2CCCCC2NC1=O` (stereo not given), the RP-LC retention time was 592 s.

On to `CCn1cc(C(=O)NCc2ccccc2)c2cccnc21`, for which the RP-LC retention time was 782 s.

Take `COCCN(Cc1ccc(C(C)C)cc1)Cc1cc(=O)n2cccc(C)c2n1`: the RP-LC retention time was determined as 728 s.

`Cn1ncc(N2CCCC(C(=O)NC3CCCCCC3)C2)cc1=O` (stereo not given) yielded an RP-LC retention time of 726 s.

`Cc1nc(CCNC(=O)[C@H]2CCCN2C(=O)c2ccc(Cl)cc2)cs1` returned an RP-LC retention time of 674 s.

As to `CC(C)CNC(=O)c1nnc(-c2ccc(S(=O)(=O)N(C)C)cc2)o1`, the RP-LC retention time was determined as 787 s.

As for `CC(C)c1ccccc1NS(=O)(=O)c1cc(-c2nc(C(C)(C)C)cs2)cs1`, the RP-LC retention time amounted to 603 s.

`Cc1nc(-c2ccccc2)sc1C(=O)Nc1nc(-c2ccc(F)cc2)c(C)s1` registered an RP-LC retention time of 1280 s.

Regarding `CCc1ccc2[nH]c3c(c(=O)c2c1)CN(CC(=O)NCc1cccc(OC)c1)CC3`, the RP-LC retention time worked out at 629 s.

As to `CC(C)c1noc(-c2cc(=O)n(CC(=O)Nc3ccc(F)cc3F)c3ccccc23)n1`, the RP-LC retention time was found to be 1020 s.

`COc1cccc(CNC(=O)C2CCN(c3cc(N4CCSCC4)ncn3)CC2)c1` yielded an RP-LC retention time of 656 s.

In the case of `O=S(=O)(c1ccc(F)cc1)N1CCC2(CC1)NCCN=C2NCc1cccc(F)c1`, the RP-LC retention time is 691 s.

The compound `FC1(c2nc(Cc3ccccc3)no2)CCN(Cc2ccoc2)CC1` showed an RP-LC retention time of 693 s.

In turn, `CCCn1c(=O)c(C)nc2cc(-c3noc(/C=C/c4ccc(OC)c(OC)c4)n3)ccc21` registered an RP-LC retention time of 735 s.

The compound `Cc1noc([C@@H]2CN(C(=O)c3ccoc3C)C[C@H]2C(N)=O)n1` gave an RP-LC retention time of 599 s.

The compound `Cc1ccc(Nc2nccc(N(C)c3ccc4c(C)n(C)nc4c3)n2)cc1S(N)(=O)=O` came in with an RP-LC retention time of 685 s.

Regarding `O=C(Nc1cccc(F)c1)c1csc(-c2ccc(N3CCCC3)nc2)n1`, the RP-LC retention time came out at 772 s.

For the compound `COc1cc2nccc(Oc3ccc(NC(=O)Nc4ccc(F)cc4F)c(F)c3)c2cc1OC`, the RP-LC retention time amounted to 782 s.

In turn, `CS(=O)(=O)N1CCCN(C(=O)C2(c3ccccc3)CC2)c2ccccc21` showed an RP-LC retention time of 761 s.

In turn, `CCN1C(=O)c2cc(S(=O)(=O)Nc3ccc(C)c(C)c3)ccc2Oc2cccnc21` displayed an RP-LC retention time of 986 s.

On to `C=CCn1nc(C)c(-c2cc(C(=O)O)[nH]n2)c1C`, for which the RP-LC retention time was 605 s.

Compound `CC(=O)c1ccc(NC(=O)c2cnc(-c3ccc(C(F)(F)F)cc3)nc2C)cc1` came in with an RP-LC retention time of 1030 s.

`O=[N+]([O-])c1cccc2cn[nH]c12` returned an RP-LC retention time of 767 s.

`CN(Cc1ccccc1)C(=O)c1cc2cccnc2n(Cc2ccccc2)c1=O` displayed an RP-LC retention time of 950 s.

On to `Cn1nnnc1C1CCCN(S(=O)(=O)Cc2ccccc2)C1` (stereo not given), for which the RP-LC retention time amounted to 751 s.

Values taken from the METLIN SMRT retention time set (Domingo-Almenara et al. 2019).
